This assay addresses T1, Kv1.3 potassium channel (Homo sapiens, UniProt P22001).
T1 construct: expressed in transfected cells
Description: Kv1.3 potassium channel blocker activity, automated whole-cell patch clamp (Patchliner). As to conditions: CHO-K1 cells stably expressing Kv1.3; whole cell current inhibition; read-out: Kv1.3_IC50. It is filed as cell-based. The method, then:
The assay described below is used to evaluate the disclosed compound's activities as Kv1.3 potassium channel blockers.
CHO-K1 cells stably expressing Kv1.3 were grown in DMEM containing 10% heat-inactivated FBS, 1 mM Sodium Pyruvate, 2 mM L-Glutamine and G418 (500 μg/ml).
All compounds were dissolved in DMSO at 30 mM.
The currents were evoked by applying 100 ms depolarizing pulses from −90 mV (holding potential) to +40 mV were applied with 0.1 Hz frequency. […] 10 second breaks were used between pulse trains (see Table A below).
Data were sampled at 10 kHz without filtering. Passive leak currents were subtracted online using a P/4 procedure (HEKA Elektronik Dr. Schulze GmbH). […] Total compound incubation time before the next pulse train was not longer than 10 seconds. Peak current inhibition was observed during compound equilibration.

Consider 35 compounds from patent US20230023559A1, “ARYLMETHYLENE HETEROCYCLIC COMPOUNDS AS KV1.3 POTASSIUM SHAKER CHANNEL BLOCKERS” (D. E. Shaw Research, LLC, priority 2019, published 2023).

Bounds are passed on as bounds.

T1 sequence (P22001 whole entry): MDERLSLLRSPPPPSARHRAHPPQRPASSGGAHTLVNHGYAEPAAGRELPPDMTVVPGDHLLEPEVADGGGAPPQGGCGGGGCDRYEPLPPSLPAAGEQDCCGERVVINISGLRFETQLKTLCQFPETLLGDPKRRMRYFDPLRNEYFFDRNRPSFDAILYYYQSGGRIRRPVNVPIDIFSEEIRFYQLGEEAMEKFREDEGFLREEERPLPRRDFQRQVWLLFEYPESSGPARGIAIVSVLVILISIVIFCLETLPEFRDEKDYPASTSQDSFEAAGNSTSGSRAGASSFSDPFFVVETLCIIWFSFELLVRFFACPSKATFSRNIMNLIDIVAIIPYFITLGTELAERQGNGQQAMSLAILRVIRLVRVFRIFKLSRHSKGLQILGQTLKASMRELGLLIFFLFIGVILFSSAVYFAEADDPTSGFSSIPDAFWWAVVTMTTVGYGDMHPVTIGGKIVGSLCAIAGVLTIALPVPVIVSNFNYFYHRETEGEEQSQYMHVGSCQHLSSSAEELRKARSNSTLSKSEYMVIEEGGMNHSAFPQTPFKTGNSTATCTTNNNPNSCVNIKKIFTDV

In general, IC50 refers to the concentration needed to halve the response being measured. On to `C[C@@](O)(c1cc(Cl)c(Cl)cc1O)C1CCNCC1` (single isomer, unassigned; isomer 1) [Compound 25, 4,5-dichloro-2-(1-hydroxy-1-(piperidin-4-yl)ethyl)phenol isomer 1], for which the 50% inhibitory concentration (IC50) was < 10 µM. Then `N[C@@H](c1cc(Cl)ccc1O)C1CCN(C(=O)[C@H](O)CO)CC1` [Compound 295, (2R)-1-[4-[(R)-amino(5-chloro-2-hydroxyphenyl)methyl]piperidin-1-yl]-2,3-dihydroxypropan-1-one], with < 10 µM; and `O=C([C@@H]1CCNC1)N1CCC([C@H](O)c2c(O)ccc(Cl)c2Cl)CC1` (single isomer, unassigned) [Compound 321, Trifluoroacetic Acid], with < 10 µM. In the case of `Cc1cc(O)c([C@H](N)C2CCN(C(=O)c3ccc4[nH]c(=O)[nH]c4c3)CC2)cc1Cl` [Compound 256, 5-[4-[(R)-amino (5-chloro-2-hydroxy-4-methylphenyl)methyl]piperidine-1-carbonyl]-1,3-dihydro-1,3-benzodiazol-2-one trifluoroacetic acid], the IC50 was < 0.5 µM. In the case of `N[C@@H](c1cc(Cl)c(C2CCC2)cc1O)C1CCN(C(=O)[C@H](O)CO)CC1` [Compound 288, (2R)-1-[4-[(R)-amino(5-chloro-4-cyclobutyl-2-hydroxyphenyl)methyl]piperidin-1-yl]-2,3-dihydroxypropan-1-one Trifluoroacetic Acid], the IC50 is < 30 µM. Consider `N[C@@H](c1cc(Cl)c(Cl)cc1O)[C@H]1CCCN(C(=O)[C@H](O)CO)CC1` (single isomer, unassigned; isomer 2) [Compound 334], for which the IC50 was < 10 µM. Then `Cc1cc(O)c([C@H](N)C2CCN(C(=O)c3ccc4[nH]c(=O)oc4c3)CC2)cc1Cl` [Compound 271, 6-[4-[(R)-amino(5-chloro-2-hydroxy-4-methylphenyl)methyl]piperidine-1-carbonyl]-3H-1,3-benzoxazol-2-one], with < 10 µM; and `O=S(=O)([C@@H]1CCNC1)N1CCC([C@@H](O)c2cc(Cl)c(Cl)cc2O)CC1` (single isomer, unassigned; isomer 4) [Compound 127, 4,5-dichloro-2-(hydroxy(1-(pyrrolidin-3-ylsulfonyl)piperidin-4-yl)methyl)phenol Isomer 4], with < 0.5 µM; and `N[C@@H](c1c(O)cc(Cl)c(Cl)c1F)C1CCN(C(=O)c2c[nH]c(=O)c(Cl)c2)CC1` [Compound 266, 5-[4-[(R)-amino(3,4-dichloro-2-fluoro-6-hydroxyphenyl)methyl]piperidine-1-carbonyl]-3-chloro-1H-pyridin-2-one Trifluoroacetic Acid], with < 0.5 µM. `NC(c1cc(Cl)c(Cl)c(F)c1O)C1CCN(C(=O)[C@H](O)CO)CC1` (stereo partly drawn) [Compound 290, (2R)-1-[4-[amino(4,5-dichloro-3-fluoro-2-hydroxyphenyl)methyl]piperidin-1-yl]-2,3-dihydroxypropan-1-one Trifluoroacetic Acid]: the IC50 was < 10 µM. For `N[C@H](c1cc(Cl)c(Cl)cc1O)[C@@H]1CCN(C(=O)[C@H](O)CO)C1` [Compound 310, (2R)-1-[(3R)-3-[(S)-amino(4,5-dichloro-2-hydroxyphenyl)methyl]pyrrolidin-1-yl]-2,3-dihydroxypropan-1-one], the concentration for half-maximal inhibition (IC50) is < 10 µM. `N[C@H](c1cc(Cl)c(Cl)cc1O)C1CC2CC1CN2C(=O)[C@H](O)CO` (stereo partly drawn) [Compound 316, (2R)-1-(5-((S)-amino(4,5-dichloro-2-hydroxyphenyl)methyl)-2-azabicyclo[2.2.1]heptan-2-yl)-2,3-dihydroxypropan-1-one Trifluoroacetic Acid]: the IC50 was < 10 µM. `CN1C[C@@H](C(=O)N2CCC([C@@H](N)c3cc(Cl)c(Cl)cc3O)CC2)OCC1=O` (single isomer, unassigned; isomer 2) [Compound 278]: the IC50 is < 10 µM. Then `NC(c1c(O)ccc(Cl)c1Cl)C1CCNCC1` (centres unmarked) [Compound 86, 2-[amino(piperidin-4-yl)methyl]-3,4-dichlorophenol Bis(Trifluoroacetic Acid)], with < 30 µM; and `CC[C@H](N)C(=O)N1CCC([C@@H](N)c2cc(Cl)c(Cl)cc2O)CC1` [Compound 91, (S)-2-amino-1-(4-((R)-amino(4,5-dichloro-2-hydroxyphenyl)methyl)piperidin-1-yl)butan-1-one trifluoroacetic acid], with < 0.5 µM; and `CS(=O)(=O)N1CCC(C(N)c2cc(Cl)c(Cl)cc2O)CC1` (centres unmarked) [Compound 71, 2-[amino(1-methanesulfonylpiperidin-4-yl)methyl]-4,5-dichlorophenol Trifluoroacetic Acid], with < 10 µM. On to `N[C@@H](c1cc(Cl)c(Cl)cc1O)C1CC2CC1CN2C(=O)[C@H](O)CO` (stereo partly drawn) [Compound 315, (2R)-1-(5-((R)-amino(4,5-dichloro-2-hydroxyphenyl)methyl)-2-azabicyclo[2.2.1]heptan-2-yl)-2,3-dihydroxypropan-1-one Trifluoroacetic Acid], for which the IC50 is < 10 µM. Then `CC1(C)C[C@H]([C@H](N)c2cc(Cl)c(Cl)cc2O)CCN1` (single isomer, unassigned; diastereoisomer 2) [Compound 73, 2-(amino(2,2-dimethylpiperidin-4-yl)methyl)-4,5-dichlorophenol Trifluoroacetic Acid Diastereoisomer 2], with < 10 µM. Take `C[C@@H](N)C(=O)N1CCC([C@H](N)c2cc(Cl)c(Cl)cc2O)CC1` (single isomer, unassigned) [Compound 87]: the 50% inhibitory concentration (IC50) is < 10 µM. `Cc1cc(O)c([C@H](N)C2CCN(C(=O)c3ccc4c(c3)NC(=O)C4)CC2)cc1Cl` [Compound 263, 6-[4-[(R)-amino (5-chloro-2-hydroxy-4-methylphenyl)methyl]piperidine-1-carbonyl]-1,3-dihydroindol-2-one trifluoroacetic acid]: the concentration for half-maximal inhibition (IC50) was < 0.5 µM. Then `O=S(=O)([C@@H]1CCNC1)N1CCC([C@H](O)c2cc(Cl)c(Cl)cc2O)CC1` (single isomer, unassigned; isomer 2) [Compound 125, 4,5-dichloro-2-(hydroxy(1-(pyrrolidin-3-ylsulfonyl)piperidin-4-yl)methyl)phenol Isomer 2], with < 10 µM; and `NC(=O)CCN1CCC(C(N)c2cc(Cl)c(Cl)cc2O)CC1` (centres unmarked) [Compound 78], with < 10 µM; and `CC(=O)N1CCC(C(Nc2ccccn2)c2cc(Cl)c(Cl)cc2O)CC1` (centres unmarked) [Compound 27, 1-[4-[(4,5-dichloro-2-hydroxyphenyl)[(pyridin-2-yl)amino]methyl]piperidin-1-yl]ethan-1-one Trifluoroacetic Acid], with < 30 µM. As to `N[C@H](c1c(O)cc(Cl)c(Cl)c1F)C1CCN(C(=O)[C@H](O)CO)CC1` [Compound 287, (R)-1-(4-((S)-amino(3,4-dichloro-2-fluoro-6-hydroxyphenyl)methyl)piperidin-1-yl)-2,3-dihydroxypropan-1-one], the half-inhibitory concentration (IC50) is < 10 µM.

`O=C([C@H]1CCNC1)N1CCC[C@H]([C@@H](O)c2c(O)ccc(Cl)c2Cl)CC1` (single isomer, unassigned; isomer 4) [Compound 130]: the IC50 is < 10 µM. Then `N[C@H](c1cc(Cl)c(Cl)cc1O)C1CCN(C(=O)[C@@H]2CCNC2)CC1` (single isomer, unassigned) [Compound 84], with < 10 µM; and `N[C@@H](c1cc(Cl)c(Cl)cc1O)C1CCN(C(=O)C2CNCC2(F)F)CC1` (stereo partly drawn) [Compound 113, (4-((R)-amino(4,5-dichloro-2-hydroxyphenyl)methyl)piperidin-1-yl)(4,4-difluoropyrrolidin-3-yl)methanone], with < 10 µM. Take `N[C@@H](c1cc(Cl)c(Cl)cc1O)C1CCN(C(=O)c2ccc(=O)[nH]n2)CC1` [Compound 253, 6-[4-[(R)-amino(4,5-dichloro-2-hydroxyphenyl)methyl]piperidine-1-carbonyl]-2H-pyridazin-3-one trifluoroacetic acid]: the IC50 is < 0.5 µM. Then `CN[C@H](c1cc(Cl)c(Cl)cc1O)C1CCN(C(=O)[C@H](O)CO)CC1` (single isomer, unassigned) [Compound 336], with < 10 µM; and `Cc1cc(O)c([C@H](N)C2CCN(C(=O)c3ccc4c(c3)CCC(=O)N4)CC2)cc1Cl` [Compound 259, 6-[4-[(R)-amino (5-chloro-2-hydroxy-4-methylphenyl)methyl]piperidine-1-carbonyl]-3,4-dihydro-1H-quinolin-2-one trifluoroacetic acid], with < 0.5 µM. For the compound `O=C1CCCN1C(c1cc(Cl)c(Cl)cc1O)C1CCNCC1` (centres unmarked) [Compound 29, 1-((4,5-dichloro-2-hydroxyphenyl)(piperidin-4-yl)methyl)pyrrolidin-2-one Trifluoroacetic Acid], the half-maximal inhibitory concentration (IC50) is < 10 µM.

Consider `Oc1cc(Cl)c(Cl)cc1C(C1CCNCC1)n1cccn1` (centres unmarked) [Compound 13, 4,5-dichloro-2-[piperidin-4-yl(1H-pyrazol-1-yl)methyl]phenol], for which the concentration for half-maximal inhibition (IC50) is < 10 µM. Then `CC(=O)NC(c1cc(Cl)c(Cl)cc1O)C1CCN(C(=O)[C@@H]2CCNC2)CC1` (stereo partly drawn) [Compound 108, N-((4,5-dichloro-2-hydroxyphenyl)(1-((R)-pyrrolidine-3-carbonyl)piperidin-4-yl)methyl)acetamide Trifluoroacetic Acid], with < 10 µM. In the case of `NC(c1cc(Cl)c(Cl)cc1O)C1CCN(C(=O)C(F)(F)F)CC1` (centres unmarked) [Compound 77, 1-[4-[amino(4,5-dichloro-2-hydroxyphenyl)methyl]piperidin-1-yl]-2,2,2-trifluoroethan-1-one Trifluoroacetic Acid], the IC50 is < 10 µM. Consider `CC(=O)N[C@@H](c1cc(Cl)c(Cl)cc1O)C1CCNCC1` (single isomer, unassigned) [Compound 17], for which the IC50 was < 30 µM.
